CS(=O)(=O)c1ccc(C(=O)C2C(=O)CCCC2=O)c([N+](=O)[O-])c1
solubility (mole fraction)
Conditions	283.15 K	288.15 K	293.15 K	298.15 K	303.15 K	308.15 K	313.15 K	318.15 K	323.15 K
in 2-pentanol	0.000571	0.00081	0.00114	0.00158	0.00216	0.00294	0.00396	0.00561	0.00671
in MTBE	0.000245	0.000282	0.000322	0.000367	0.000397	0.000473	0.000536	0.000606	0.000684
in cyclohexane	0.000321	0.000402	0.000486	0.000616	0.000733	0.000888	0.00104	0.00122	0.00168
in ethanol	0.0023	0.00264	0.00316	0.00386	0.00455	0.00535	0.00627	0.00734	0.00857
in ethyl acetate	0.000565	0.000707	0.000879	0.00109	0.00132	0.00163	0.00198	0.00239	0.00287
in methanol	0.00351	0.00401	0.00457	0.00518	0.00567	0.00663	0.00748	0.00842	0.00946
in methyl acetate	0.00134	0.00152	0.00173	0.00194	0.00225	0.00255	0.00293	0.0033	0.00381
in n-butanol	0.000708	0.000999	0.00139	0.00193	0.00273	0.00355	0.00476	0.00601	0.00731
in n-butyl acetate	0.000418	0.000529	0.000664	0.000829	0.00103	0.00127	0.00155	0.0019	0.00231
in n-pentanol	0.000635	0.000889	0.00123	0.00168	0.00228	0.00306	0.00407	0.00536	0.007
in n-propanol	0.0013	0.00168	0.00216	0.00274	0.00376	0.00434	0.0054	0.00669	0.00793
in sec-butanol	0.000341	0.000507	0.000745	0.00108	0.00145	0.00199	0.00307	0.00425	0.00584

Reference: BigSolDB 2.1
